Activity, inhibition and IC50 data for 33 compounds are collected here from ChEMBL document CHEMBL4229367, “Identification of multi-target inhibitors of leukotriene and prostaglandin E2 biosynthesis by structural tuning of the FLAP inhibitor BRP-7” (Eur J Med Chem, 2018).

In test [1] the target is T1, Arachidonate 5-lipoxygenase-activating protein (Homo sapiens) (UniProt P20292).
T1 sequence (whole entry): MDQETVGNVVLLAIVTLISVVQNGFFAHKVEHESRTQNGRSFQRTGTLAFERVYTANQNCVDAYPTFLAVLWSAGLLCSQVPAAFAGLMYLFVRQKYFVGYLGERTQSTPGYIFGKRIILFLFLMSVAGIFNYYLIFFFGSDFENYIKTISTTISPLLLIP
In words: Inhibition of FLAP in A23187-stimulated human neutrophils assessed as remaining enzyme activity by measuring 5-LO product formation at 1 uM preincubated for 15 mins followed by A23187 and arachidonic acid addition and measured after 10 mins by UV based RP-HPLC analysis (reference value: 100%).

Test [2] concerns the target T1, Arachidonate 5-lipoxygenase-activating protein (Homo sapiens). In words: Inhibition of FLAP in A23187-stimulated human neutrophils assessed as remaining enzyme activity by measuring 5-LO product formation at 0.1 uM preincubated for 15 mins followed by A23187 and arachidonic acid addition and measured after 10 mins by UV based RP-HPLC analysis (reference value: 100%).

The target in test [3] is T2, Prostaglandin E synthase (Homo sapiens) (UniProt O14684).
T2 sequence (whole entry): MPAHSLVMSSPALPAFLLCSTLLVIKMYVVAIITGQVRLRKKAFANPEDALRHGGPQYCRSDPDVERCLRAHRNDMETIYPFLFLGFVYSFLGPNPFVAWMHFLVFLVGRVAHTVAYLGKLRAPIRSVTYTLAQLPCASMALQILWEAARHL
The test is described as follows: Inhibition of mPGES1 in IL-1beta-stimulated human A549 cell microsomal fractions assessed as reduction in PGE2 production at 3 uM preincubated for 15 mins followed by PGH2 substrate addition and measured after 1 min by RP-HPLC analysis relative to control.

Test [4] addresses T3, Arachidonate 5-lipoxygenase-activating protein (Homo sapiens, UniProt P20292).
T3 sequence (P20292 whole entry): T1 sequence (whole entry)
In words: Inhibition of FLAP in A23187-stimulated human neutrophils assessed as reduction in 5-LO product formation preincubated for 15 mins followed by A23187 and arachidonic acid addition and measured after 10 mins by UV based RP-HPLC analysis.

Test [5] concerns the target T4, Polyunsaturated fatty acid 5-lipoxygenase (Homo sapiens, UniProt P09917).
T4 sequence (P09917 whole entry): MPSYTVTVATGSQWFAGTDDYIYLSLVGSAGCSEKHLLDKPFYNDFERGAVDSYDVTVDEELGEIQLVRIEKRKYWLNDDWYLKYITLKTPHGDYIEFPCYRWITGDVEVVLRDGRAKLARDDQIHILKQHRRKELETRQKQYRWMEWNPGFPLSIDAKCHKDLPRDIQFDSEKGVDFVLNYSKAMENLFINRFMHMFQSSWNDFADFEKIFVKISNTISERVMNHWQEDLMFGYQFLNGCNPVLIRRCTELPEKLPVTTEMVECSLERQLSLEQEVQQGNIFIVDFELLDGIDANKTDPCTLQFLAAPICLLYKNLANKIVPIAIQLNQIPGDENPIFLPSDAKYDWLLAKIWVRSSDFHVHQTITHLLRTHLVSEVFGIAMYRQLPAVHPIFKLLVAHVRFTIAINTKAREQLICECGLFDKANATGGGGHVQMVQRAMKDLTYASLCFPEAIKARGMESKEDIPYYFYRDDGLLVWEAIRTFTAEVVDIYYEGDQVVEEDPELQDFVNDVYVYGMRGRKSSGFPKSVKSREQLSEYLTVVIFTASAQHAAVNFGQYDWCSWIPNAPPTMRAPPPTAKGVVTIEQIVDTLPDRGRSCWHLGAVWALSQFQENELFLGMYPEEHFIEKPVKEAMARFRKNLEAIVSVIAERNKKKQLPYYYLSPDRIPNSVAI
The test is described as follows: Inhibition of recombinant human 5-LO expressed in Escherichia coli BL21 incubated for 15 mins prior to prewarming for 30 secs followed by CaCl2+ and arachidonic acid addition and measured after 10 mins by RP-HPLC analysis.

In test [6] the target is T1, Arachidonate 5-lipoxygenase-activating protein (Homo sapiens). In words: Inhibition of FLAP in A23187-stimulated human neutrophils assessed as remaining enzyme activity by measuring 5-LO product formation at 10 uM preincubated for 15 mins followed by A23187 and arachidonic acid addition and measured after 10 mins by UV based RP-HPLC analysis (reference value: 100%).

The inhibition is the share of the control response that was lost under treatment. The IC50 is the concentration needed to halve the response being measured.

As to `CC(C)Cc1ccc(C(C)c2nc3cc(OCC(=O)O)ccc3n2Cc2ccccc2Cl)cc1` (centres undefined), the Activity in test [1] is 6.38%; in test [2], 67.3%. Also, in test [3], the inhibition is greater than 50%. For the same compound, the 50% inhibitory concentration (IC50) in test [4] came to 0.18 µM.

In the case of `CC(C)Oc1ccc(-c2nc3cc(C#N)ccc3n2Cc2ccccc2Cl)cc1`, the Activity in test [1] was 68.4%; in test [2], 93.7%.

Take `CC(C)Cc1ccc(-c2nc3cc(C#N)ccc3n2Cc2ccccc2Cl)cc1`: the Activity in test [1] worked out at 74.3%; in test [2], 93%.

`C=C(Cc1ccc(-c2cnc(N)nc2)cc1)c1nc2cc(C#N)ccc2n1Cc1ccccc1Cl`: the half-inhibitory concentration (IC50) in test [4] came to 0.37 µM.

As to `CC(C)Cc1ccc(C(C)c2nc3c(C(=O)O)cccc3n2Cc2ccccc2Cl)cc1` (centres undefined), the Activity in test [1] and in test [2] was 85% throughout. The IC50 in test [4] came out at 0.4 µM.

For `CC(C)Cc1ccc(C(C)c2nc3cc(-c4noc(=O)[nH]4)ccc3n2Cc2ccccc2Cl)cc1` (centres undefined), the Activity was found to be 0.67% in test [1] and 87.6% in test [2]. Also, in test [3], the inhibition is greater than 50%. For the same compound, in test [4], the IC50 stood at 0.27 µM.

Take `CC(C)Cc1ccc(C(C)c2nc3cc(CC(=O)O)ccc3n2Cc2ccccc2Cl)cc1` (centres undefined): the Activity in test [1] stood at 16.1%; in test [2], 91.4%. Further, in test [3], the inhibition is greater than 50%. Besides, the IC50 in test [4] was 0.45 µM.

As to `CC(C)Cc1ccc(C(C)c2nc3cc(-c4nnco4)ccc3n2Cc2ccccc2Cl)cc1` (centres undefined), the Activity in test [1] worked out at 0.45%; in test [2], 63.1%. Also, the inhibition in test [3] was less than 50%. Further, the half-maximal inhibitory concentration (IC50) in test [4] was 0.09 µM.

`CC(C)Cc1ccc(C(C)c2nc3cc(C(=O)O)ccc3n2Cc2ccccc2Cl)cc1` (centres undefined): the figures for the Activity in test [1] and in test [2] were 0% and 71.1%, respectively. Moreover, in test [3], the inhibition is greater than 50%. Further, in test [4], the IC50 was 0.28 µM.

With `CC(C)Cc1ccc(C(C)c2nc3cc(C(N)=O)ccc3n2Cc2ccccc2Cl)cc1` (centres undefined), the Activity in test [1] worked out at 0%; in test [2] it was 64%. In addition, in test [4], the half-maximal inhibitory concentration (IC50) came to 0.13 µM.

For the compound `CC(C)c1ccc2c(c1)c(SC(C)(C)C)c(CC(C)(C)C(=O)O)n2Cc1ccc(Cl)cc1`, the 50% inhibitory concentration (IC50) in test [5] came out at 3 µM.

In the case of `CC(C)Cc1ccc(C(C)c2nc3cc(-c4cccc(C(=O)O)c4)ccc3n2Cc2ccccc2Cl)cc1` (centres undefined), the Activity in test [1] was 0%; in test [2], 33%. Moreover, in test [3], the inhibition is greater than 50%. Besides, the IC50 in test [4] was 0.074 µM.

For the compound `N#Cc1ccc2c(c1)nc(NCc1ccc3[nH]ccc3c1)n2Cc1ccccc1Cl`, the figures for the Activity in test [1], in test [2] and in test [6] were 84.7%, 92.3% and 44%, respectively. In test [4], the IC50 came out at 3.8 µM.

On to `N#Cc1ccc2c(c1)nc(CCc1ccc(-c3ccc(N)nc3)cc1)n2Cc1ccccc1Cl`, for which the Activity in test [1] was found to be 1.4%; in test [2] it was 76.1%. In addition, in test [4], the IC50 amounted to 0.25 µM.

Take `CC(C)Cc1ccc(C(C)c2nc3cc(OC(C)(C)C(=O)O)ccc3n2Cc2ccccc2Cl)cc1` (centres undefined): the figures for the Activity in test [1] and in test [2] were 5.47% and 75.9%, respectively. In addition, the inhibition in test [3] is greater than 50%. Besides, the IC50 in test [4] was determined as 0.2 µM.

For `N#Cc1ccc2c(c1)nc(CCc1ccc(-c3cnc(N)nc3)cc1)n2Cc1ccccc1Cl`, the results for the Activity in test [1] and in test [2] were 8.3% and 85.5%, respectively. Further, in test [3], the inhibition is less than 50%. Also, the half-maximal inhibitory concentration (IC50) in test [4] is 0.37 µM.

On to `Cc1nc(-c2ccc3c(c2)nc(C(C)c2ccc(CC(C)C)cc2)n3Cc2ccccc2Cl)no1` (centres undefined), for which the Activity in test [1] was 1.9%; in test [2], 79%. Also, in test [4], the concentration for half-maximal inhibition (IC50) came to 0.18 µM.

On to `CC(C)Cc1ccc(C(C)c2nc3cc(-c4nnn[nH]4)ccc3n2Cc2ccccc2Cl)cc1` (centres undefined), for which the Activity in test [1] was 0%; in test [2] it was 90.2%. In addition, in test [3], the inhibition was greater than 50%. Also, the 50% inhibitory concentration (IC50) in test [4] is 0.32 µM.

For the compound `CC(C)Cc1ccc(C(C)c2nc3cc(C#N)ccc3n2Cc2ccccc2Cl)cc1` (centres undefined), in test [3], the inhibition was greater than 50%.

As for `CC(C)Cc1ccc(C(C)c2nc3cc(-c4ccccc4C(=O)O)ccc3n2Cc2ccccc2Cl)cc1` (centres undefined), the figures for the Activity in test [1] and in test [2] were 65% and 104%, respectively. The inhibition in test [3] was greater than 50%. Further, the half-inhibitory concentration (IC50) in test [4] stood at 1.1 µM.

Take `N#Cc1ccc2c(c1)nc(CCc1ccc(-c3ccc(N)nn3)cc1)n2Cc1ccccc1Cl`: the Activity in test [1] was 25.6%; in test [2] it was 85.6%. Moreover, the IC50 in test [4] came to 0.66 µM.

Take `CC(C)Cc1ccc(C(C)c2nc3c(CCC(=O)O)cccc3n2Cc2ccccc2Cl)cc1` (centres undefined): the Activity came to 1% in test [1] and 85% in test [2]. Besides, the inhibition in test [3] is greater than 50%. In test [4], the IC50 was 0.19 µM.

For `CC(C)Cc1ccc(C(C)c2nc3cc(C(N)=S)ccc3n2Cc2ccccc2Cl)cc1` (centres undefined), the Activity in test [1] was found to be 0.45%; in test [2] it was 63.1%. The 50% inhibitory concentration (IC50) in test [4] amounted to 0.16 µM.

As to `CC(Cc1ccc(-c2cnc(N)nc2)cc1)c1nc2cc(C#N)ccc2n1Cc1ccccc1Cl` (centres undefined), the Activity in test [1] was 4.2%; in test [2] it was 84.1%. Moreover, the inhibition in test [3] is less than 50%. Besides, the IC50 in test [4] amounted to 0.42 µM.

For `CC(C)Cc1ccc(C(C)c2nc3cc(-c4n[nH]c(=O)o4)ccc3n2Cc2ccccc2Cl)cc1` (centres undefined), the Activity in test [1] was found to be 0.5%; in test [2] it was 40.5%. In addition, in test [4], the concentration for half-maximal inhibition (IC50) was 0.1 µM.

Turning to `CC(C)Cc1ccc(C(C)c2nc3cc(S(N)(=O)=O)ccc3n2Cc2ccccc2Cl)cc1` (centres undefined), the Activity in test [1] is 16.8%; in test [2], 77.8%. Moreover, the inhibition in test [3] was greater than 50%. In addition, in test [4], the 50% inhibitory concentration (IC50) is 0.28 µM.

Regarding `N#Cc1ccc2c(c1)nc(CCc1ccc(-c3cnc(N)cn3)cc1)n2Cc1ccccc1Cl`, the Activity was 3.5% in test [1] and 72.7% in test [2]. In test [4], the IC50 amounted to 0.26 µM.

As for `CC(C)Cc1ccc(C(C)c2nc3cc(-c4nc(C(=O)O)cs4)ccc3n2Cc2ccccc2Cl)cc1` (centres undefined), the Activity in test [1] amounted to 1.06%; in test [2] it was 72.7%. Also, the inhibition in test [3] is greater than 50%. Further, the IC50 in test [4] worked out at 0.15 µM.

With `N#Cc1ccc2c(c1)nc(NCCc1c[nH]c3ccccc13)n2Cc1ccccc1Cl`, the Activity amounted to 99.2% in test [1], 97.1% in test [2] and 63% in test [6]. Besides, the IC50 in test [4] came out at 8.8 µM.

Take `CC(c1ccc(CC(C)(C)C)cc1)c1nc2cc(C#N)ccc2n1Cc1ccccc1Cl` (centres undefined): the Activity amounted to 51.5% in test [1] and 117% in test [2]. The concentration for half-maximal inhibition (IC50) in test [4] came to 1.7 µM.

As for `CC(C)CCc1ccc(C(C)c2nc3cc(C#N)ccc3n2Cc2ccccc2Cl)cc1` (centres undefined), the Activity came out at 87.2% in test [1], 118% in test [2] and 66% in test [6]. Further, the concentration for half-maximal inhibition (IC50) in test [4] was 18 µM.

`CCC(C)c1ccc(C(C)c2nc3cc(C#N)ccc3n2Cc2ccccc2Cl)cc1` (centres undefined): the Activity in test [1] was found to be 33.6%; in test [2] it was 92.1%. In test [4], the half-maximal inhibitory concentration (IC50) came to 0.7 µM.

For `N#Cc1ccc2c(c1)nc(NCc1ccc3cc[nH]c3c1)n2Cc1ccccc1Cl`, the Activity in test [1] was found to be 98.5%; in test [2] it was 93.6%; in test [6] it was 84%. Moreover, in test [4], the 50% inhibitory concentration (IC50) is greater than 10 µM.
